# Data taken from ChEMBL document CHEMBL1201862, “PubChem BioAssay data set” (2004).
# Active and inactive are the calls of the source.
# Tests used:
# [1] = NIH3T3 cell viability loss – ATP luminescence, mouse fibroblasts, counter-screen, dose response (AID 2010); type: functional, cell-based;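 note: cells exposed to compound for about 90 hours before reading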
# [2] = Trypanosoma cruzi growth suppression in host cells – NIH3T3 host cells, beta-gal luminescence, confirmation (AID 2044); type: functional, cell-based;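 note: intracellular parasites grown in NIH/3T3 mouse fibroblasts as host cells; luminescent beta-galactosidase reporter signal from transgenic T. cruzi replicating inside host cells; inhibitors lower the luminescence signal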
# [3] = cAMP pathway inhibition in counterscreen cell line – TR-FRET cAMP detection, counter-screen for MC4R biased antagonist project, dose response (AID 602305); type: functional, cell-based;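 note: U2OS cells stimulated with forskolin near its EC80 as the cAMP inducer; potency is for inhibition of forskolin-stimulated cAMP signaling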
# Melanocortin receptor 4 = Melanocortin receptor 4 (Homo sapiens, UniProt P32245); test: inhibitors of MC4R cAMP signaling – cell-based, TR-FRET, biased antagonists, dose response (AID 602298); type: functional;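 note: antagonist potency against agonist-stimulated cAMP production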
# Steroidogenic factor 1 = Steroidogenic factor 1 (Homo sapiens, UniProt Q13285); test: Counterscreen for inverse agonists of the liver receptor homolog-1 (LRH-1; NR5A2): Luminescence-based cell-based high throughput dose response assay to identify inverse agonists of the Steroidogenic Factor 1 Nuclear Receptor (SF1; NR5A1).; type: functional
# [4] = nonselective StAR promoter luciferase inhibitors – cell-based, luminescence, luciferase reporter, counter-screen for LRH-1 inverse agonist project, dose response (AID 651969); type: functional
# [5] = biological target: Nuclear receptor subfamily 5 group A member 2 (Homo sapiens, UniProt O00482); type: functional, cell-based;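 note: HEK293T cells transfected with LRH-1 and a StAR promoter luciferase reporter; potency for inhibitors that lower LRH-1 driven reporter light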
# INS1 = test: INS-1E survival protection against cytokine death – cell-based, luminescence, retest, dose response (AID 449756); type: functional; conditions: Rattus norvegicus;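 note: cell death triggered by IL-1 beta plus TNF-alpha plus IFN-gamma mixture; protective hits raise ATP signal compared with cytokine alone wells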
# [6] = general cell-killing toxicity readout – plate reader, dry powder samples, cytotoxicity control for PAX8 inhibitor project, dose response (AID 743021); type: functional, cell-based
# Paired box protein Pax-8 = Paired box protein Pax-8 (Homo sapiens, UniProt Q06710); test: PAX8 transcriptional activity inhibition in RMG-I – RMG-I cells, luciferase, cherry-pick, dose response (AID 687027); type: functional, cell-based;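 note: luciferase reporter driven by Pax8 target thyroperoxidase promoter measured by SteadyGlo luminescence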
# [7] = Luminescence Cell-Based Dose Retest to Confirm Inhibitors of Cancer Stem Cells. [Related pubchem assays (depositor defined):AID2717, AID2721]; type: functional; conditions: Homo sapiens
# [8] = biological target: T1, Latent membrane protein 1 (Human herpesvirus 4 (strain B95-8), UniProt P03230); test: LMP1 TES1 pathway selectivity over dsRED control – imaging, HEK293T, dual-color eGFP/dsRED, cherry-picks, selectivity assay for LMP1 NF-kB inhibitor project, dose response (AID 588398); type: functional, cell-based
# T1 sequence (P03230 whole entry): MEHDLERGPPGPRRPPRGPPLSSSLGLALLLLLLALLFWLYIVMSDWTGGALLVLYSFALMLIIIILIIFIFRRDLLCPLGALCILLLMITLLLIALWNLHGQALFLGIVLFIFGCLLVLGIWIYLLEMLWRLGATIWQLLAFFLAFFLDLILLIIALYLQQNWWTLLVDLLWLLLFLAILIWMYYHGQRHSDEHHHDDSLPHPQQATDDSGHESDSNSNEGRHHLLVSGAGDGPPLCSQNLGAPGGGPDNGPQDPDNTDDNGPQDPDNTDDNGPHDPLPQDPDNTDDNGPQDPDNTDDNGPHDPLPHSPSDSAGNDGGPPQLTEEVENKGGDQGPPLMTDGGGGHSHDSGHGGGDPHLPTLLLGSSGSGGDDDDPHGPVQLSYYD
# cells [9] = type: functional, cell-based
# cells [10] = type: functional, cell-based; remark: listed apart in the source
# [11] = DRD fibroblast viability loss – cell-based, non-viral oncogenic, luminescence, dose response (AID 1934); type: functional; conditions: Homo sapiens
# HEK293 = test: EBV LMP1 TES2 canonical NF-kB signalling blockers – cell-based, HEK293, luciferase, cherry-pick, dose response (AID 588343); type: functional; conditions: Homo sapiens
# BJ [12] = test: BJ-TERT fibroblast viability loss – cell-based, RAS-independent, luminescence, dose response (AID 1933); type: functional; conditions: Homo sapiens
# BJ [13] = test: cells; type: functional, cell-based; conditions: Homo sapiens
# Beta-galactosidase = Beta-galactosidase (Escherichia coli, UniProt Q8VNN2); test: detection-enzyme interference by beta-gal modulators – biochemical, E. coli enzyme, set 3, artefact control for CCR6 antagonist project, dose response (AID 504712); type: functional
# [14] = fluconazole-exposed Candida albicans growth modulators – fluorescence, retest, confirmation (AID 2467); type: functional, cell-based
# [15] = biological target: ATP-dependent molecular chaperone HSP82 (Candida albicans (strain WO-1) (Yeast), UniProt C4YTQ8); test: steroid-induced GRE reporter decrease in yeast – S. cerevisiae, luminescence, Hsp90 inhibitor project, dose response (AID 2400); type: functional, cell-based;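 note: beta-galactosidase luminescence from glucocorticoid response element reporter as proxy for Hsp90 function; inhibitor potency where signal loss means Hsp90 inhibition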
# [16] = NIH-3T3 fibroblast cytotoxicity, dose response, cytotoxicity control, cell-based, fluorescence, Alamar Blue, secondary assay (AID 2327); type: functional;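 note: NIH-3T3 mouse fibroblasts cultured with fluconazole at 8 µg/mL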
# [17] = biological target: T2, Serine/threonine-protein phosphatase (Candida dubliniensis (strain CD36 / CBS 7987 / NCPF 3949 / NRRLY-17841) (Yeast), UniProt B9W6M3); test: blockers of CaCl2-induced CDRE-lacZ signaling – S. cerevisiae, luminescence, secondary, dose response (AID 2388); type: functional, cell-based;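 note: yeast reporter cells carrying a calcineurin-responsive lacZ construct stimulated with calcium chloride; luminescent beta-galactosidase reporter signal in whole cells rather than isolated phosphatase activity; potency for inhibition where a drop in reporter signal means calcineurin blockade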
# T2 sequence (B9W6M3 whole entry): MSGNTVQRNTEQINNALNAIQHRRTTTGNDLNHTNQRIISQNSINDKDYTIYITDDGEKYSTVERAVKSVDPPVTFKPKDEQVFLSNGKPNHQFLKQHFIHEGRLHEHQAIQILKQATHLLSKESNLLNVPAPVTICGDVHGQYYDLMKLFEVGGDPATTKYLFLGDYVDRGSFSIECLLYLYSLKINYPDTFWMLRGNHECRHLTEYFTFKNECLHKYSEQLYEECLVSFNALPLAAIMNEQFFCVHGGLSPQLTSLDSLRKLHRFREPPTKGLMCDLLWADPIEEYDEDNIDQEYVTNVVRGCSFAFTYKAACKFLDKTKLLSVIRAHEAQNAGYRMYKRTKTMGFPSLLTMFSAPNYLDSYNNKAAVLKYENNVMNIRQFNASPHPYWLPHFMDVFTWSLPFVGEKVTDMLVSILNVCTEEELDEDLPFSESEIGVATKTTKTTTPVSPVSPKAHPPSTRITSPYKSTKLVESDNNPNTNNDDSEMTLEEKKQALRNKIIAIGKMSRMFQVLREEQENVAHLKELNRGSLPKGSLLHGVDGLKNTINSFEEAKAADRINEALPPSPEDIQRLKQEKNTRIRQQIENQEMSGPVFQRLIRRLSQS
# [18] = biological target: Adenosylmethionine-8-amino-7-oxononanoate aminotransferase (Mycobacterium tuberculosis, UniProt P9WQ81); test: Mycobacterium tuberculosis BioA enzyme inhibitor Measured in Biochemical System Using Plate Reader - 2163-02_Inhibitor_Dose_CherryPick_Activity.; type: functional, Mycobacterium tuberculosis UT205
# Sequence of Adenosylmethionine-8-amino-7-oxononanoate aminotransferase (P9WQ81 whole entry): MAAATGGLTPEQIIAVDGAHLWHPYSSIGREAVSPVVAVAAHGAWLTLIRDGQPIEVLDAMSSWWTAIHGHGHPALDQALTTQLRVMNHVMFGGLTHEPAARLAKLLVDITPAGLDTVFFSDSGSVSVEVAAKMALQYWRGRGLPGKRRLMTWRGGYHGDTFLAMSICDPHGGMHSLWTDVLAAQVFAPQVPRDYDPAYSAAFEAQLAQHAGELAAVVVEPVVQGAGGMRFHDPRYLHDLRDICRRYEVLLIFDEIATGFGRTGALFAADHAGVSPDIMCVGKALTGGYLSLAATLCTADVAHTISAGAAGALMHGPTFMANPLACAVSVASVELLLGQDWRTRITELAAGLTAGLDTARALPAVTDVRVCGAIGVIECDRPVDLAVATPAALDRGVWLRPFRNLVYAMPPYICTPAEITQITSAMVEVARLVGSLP
# Sequence of Melanocortin receptor 4 (P32245 whole entry): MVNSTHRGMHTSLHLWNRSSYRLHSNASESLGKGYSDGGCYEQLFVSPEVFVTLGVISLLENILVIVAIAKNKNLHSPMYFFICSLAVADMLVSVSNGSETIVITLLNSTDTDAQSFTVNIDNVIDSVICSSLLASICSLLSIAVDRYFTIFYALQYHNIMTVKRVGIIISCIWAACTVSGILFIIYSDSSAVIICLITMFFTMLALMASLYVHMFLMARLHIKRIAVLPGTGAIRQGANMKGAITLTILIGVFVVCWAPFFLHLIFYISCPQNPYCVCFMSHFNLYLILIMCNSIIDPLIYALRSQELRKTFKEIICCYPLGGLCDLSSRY
# Sequence of Nuclear receptor subfamily 5 group A member 2 (O00482 whole entry): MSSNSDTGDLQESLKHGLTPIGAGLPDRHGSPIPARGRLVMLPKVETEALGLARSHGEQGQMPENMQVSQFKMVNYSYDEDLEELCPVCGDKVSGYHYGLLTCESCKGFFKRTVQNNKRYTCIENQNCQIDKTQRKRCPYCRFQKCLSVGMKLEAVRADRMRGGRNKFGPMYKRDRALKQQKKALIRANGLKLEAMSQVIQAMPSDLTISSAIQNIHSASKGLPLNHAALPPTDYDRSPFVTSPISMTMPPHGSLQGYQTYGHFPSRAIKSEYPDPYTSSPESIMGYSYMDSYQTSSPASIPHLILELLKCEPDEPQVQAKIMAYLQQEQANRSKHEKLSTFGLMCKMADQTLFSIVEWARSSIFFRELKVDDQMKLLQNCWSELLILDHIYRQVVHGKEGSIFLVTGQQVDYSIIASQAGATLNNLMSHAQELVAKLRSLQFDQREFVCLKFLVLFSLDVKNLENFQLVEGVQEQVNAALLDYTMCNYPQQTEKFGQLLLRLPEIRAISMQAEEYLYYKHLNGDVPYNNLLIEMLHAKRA
# Sequence of Steroidogenic factor 1 (Q13285 whole entry): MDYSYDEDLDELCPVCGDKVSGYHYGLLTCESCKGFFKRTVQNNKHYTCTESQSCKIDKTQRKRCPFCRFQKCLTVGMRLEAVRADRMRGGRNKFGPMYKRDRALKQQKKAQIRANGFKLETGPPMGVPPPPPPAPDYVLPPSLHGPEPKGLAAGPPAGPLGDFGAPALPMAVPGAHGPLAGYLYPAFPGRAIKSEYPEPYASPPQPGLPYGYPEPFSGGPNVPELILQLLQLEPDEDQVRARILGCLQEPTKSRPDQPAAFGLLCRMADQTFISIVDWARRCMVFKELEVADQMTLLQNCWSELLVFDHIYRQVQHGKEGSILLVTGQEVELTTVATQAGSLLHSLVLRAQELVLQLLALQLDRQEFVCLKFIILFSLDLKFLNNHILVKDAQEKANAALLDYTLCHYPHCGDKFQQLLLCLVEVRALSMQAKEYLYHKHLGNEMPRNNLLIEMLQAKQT
# Sequence of ATP-dependent molecular chaperone HSP82 (C4YTQ8 whole entry): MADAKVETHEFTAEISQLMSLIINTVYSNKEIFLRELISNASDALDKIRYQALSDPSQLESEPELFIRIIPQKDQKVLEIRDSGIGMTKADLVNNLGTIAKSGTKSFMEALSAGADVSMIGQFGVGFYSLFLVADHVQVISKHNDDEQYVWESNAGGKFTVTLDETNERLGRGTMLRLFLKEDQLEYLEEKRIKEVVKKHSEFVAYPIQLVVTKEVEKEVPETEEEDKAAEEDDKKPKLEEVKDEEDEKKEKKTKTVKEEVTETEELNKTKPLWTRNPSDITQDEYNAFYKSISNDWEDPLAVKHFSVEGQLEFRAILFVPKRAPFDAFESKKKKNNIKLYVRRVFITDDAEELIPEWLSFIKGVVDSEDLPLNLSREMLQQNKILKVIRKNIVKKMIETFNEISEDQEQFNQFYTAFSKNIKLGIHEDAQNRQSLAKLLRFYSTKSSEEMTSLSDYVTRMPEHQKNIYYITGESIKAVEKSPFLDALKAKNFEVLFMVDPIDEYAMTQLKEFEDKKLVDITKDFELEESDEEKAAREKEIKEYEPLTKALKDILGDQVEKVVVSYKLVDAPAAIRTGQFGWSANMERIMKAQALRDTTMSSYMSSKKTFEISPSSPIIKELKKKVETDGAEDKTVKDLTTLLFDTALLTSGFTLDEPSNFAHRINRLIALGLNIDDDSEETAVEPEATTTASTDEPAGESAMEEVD
# Sequence of Paired box protein Pax-8 (Q06710 whole entry): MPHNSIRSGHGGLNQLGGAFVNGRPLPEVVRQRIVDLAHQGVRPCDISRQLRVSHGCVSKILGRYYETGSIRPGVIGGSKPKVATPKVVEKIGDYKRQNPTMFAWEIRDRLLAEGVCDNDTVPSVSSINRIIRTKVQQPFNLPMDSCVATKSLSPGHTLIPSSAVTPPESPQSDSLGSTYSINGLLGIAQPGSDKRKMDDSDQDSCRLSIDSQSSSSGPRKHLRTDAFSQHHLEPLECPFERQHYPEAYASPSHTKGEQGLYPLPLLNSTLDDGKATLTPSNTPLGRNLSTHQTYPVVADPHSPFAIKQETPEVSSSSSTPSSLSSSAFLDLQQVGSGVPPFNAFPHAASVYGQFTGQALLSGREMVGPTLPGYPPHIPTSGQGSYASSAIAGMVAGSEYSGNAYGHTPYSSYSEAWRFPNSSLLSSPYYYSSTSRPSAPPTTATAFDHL
# Sequence of Beta-galactosidase (Q8VNN2 whole entry): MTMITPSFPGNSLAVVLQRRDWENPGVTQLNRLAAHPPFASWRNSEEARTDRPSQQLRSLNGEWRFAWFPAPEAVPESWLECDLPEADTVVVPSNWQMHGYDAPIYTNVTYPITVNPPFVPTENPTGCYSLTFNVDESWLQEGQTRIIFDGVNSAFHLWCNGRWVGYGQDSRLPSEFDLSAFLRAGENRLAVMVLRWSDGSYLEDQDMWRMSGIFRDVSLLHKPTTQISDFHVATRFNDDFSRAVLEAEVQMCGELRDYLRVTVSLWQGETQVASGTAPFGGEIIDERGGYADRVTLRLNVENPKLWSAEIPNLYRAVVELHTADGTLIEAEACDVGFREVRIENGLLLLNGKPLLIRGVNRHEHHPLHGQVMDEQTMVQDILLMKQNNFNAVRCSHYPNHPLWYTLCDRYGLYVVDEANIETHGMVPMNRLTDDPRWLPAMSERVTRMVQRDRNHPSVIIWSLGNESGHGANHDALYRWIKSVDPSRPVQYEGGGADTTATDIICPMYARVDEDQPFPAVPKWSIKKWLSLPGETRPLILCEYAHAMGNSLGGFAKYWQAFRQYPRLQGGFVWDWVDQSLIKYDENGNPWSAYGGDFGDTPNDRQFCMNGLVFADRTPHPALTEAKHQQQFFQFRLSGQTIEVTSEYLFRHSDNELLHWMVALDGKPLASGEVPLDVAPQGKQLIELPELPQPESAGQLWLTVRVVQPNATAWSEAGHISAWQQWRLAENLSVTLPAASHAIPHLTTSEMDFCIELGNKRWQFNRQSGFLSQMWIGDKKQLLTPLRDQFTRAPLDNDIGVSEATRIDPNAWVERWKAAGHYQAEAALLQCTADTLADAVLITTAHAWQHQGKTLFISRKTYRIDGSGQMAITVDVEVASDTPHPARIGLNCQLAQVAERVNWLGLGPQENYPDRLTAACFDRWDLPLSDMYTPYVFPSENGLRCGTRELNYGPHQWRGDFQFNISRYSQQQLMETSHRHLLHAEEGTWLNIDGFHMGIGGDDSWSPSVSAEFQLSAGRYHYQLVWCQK
structure (smiles),measurement,setting,value
CCOc1ccc2nc(NC(=O)C3CCCN(S(=O)(=O)c4cccc5nonc45)C3)sc2c1 (centres undefined),EC50,[1],> 60 µM (not active)
same,EC50,[2],2.11 µM (active)
same,IC50,[3],> 64.6 µM (inactive)
same,IC50,Melanocortin receptor 4,> 64.6 µM (inactive)
Cc1ccc2cccc(OCC(=O)NCCC3=CCCCC3)c2n1,IC50,Steroidogenic factor 1,2.83 µM (active)
same,IC50,[4],35.8 µM (inactive)
same,IC50,[5],4.06 µM (active)
C=C1CCc2c([nH]c3ccc(OCC(C)C)cc23)C1=O,AC50,INS1,3.69 µM (active)
same,AC50,[6],35.6 µM (active)
same,AC50,Paired box protein Pax-8,6.14 µM (active)
same,IC50,[3],> 64.6 µM (inactive)
same,IC50,Melanocortin receptor 4,6.05 µM (active)
same,AC50,[7],2.08 µM (active)
CCN(CC)c1ccc(/C=N/NC(=O)c2cnccn2)c(O)c1,AC50,[8],13.2 µM (active)
same,AC50,INS1,0.55 µM (active)
same,EC50,cells [9],8.38 µM (active)
same,EC50,cells [10],40 µM (active)
same,EC50,[11],2.17 µM (active)
same,AC50,HEK293,5.61 µM (active)
same,EC50,BJ [12],5.61 µM (active)
same,EC50,BJ [13],5.54 µM (active)
CC(=O)NC(c1ccc(C)cc1)c1cc([N+](=O)[O-])c2cccnc2c1O (centres undefined),EC50,[1],< 6 µM (inconclusive)
same,IC50,Beta-galactosidase,> 66.6 µM (inactive)
same,EC50,[14],0.334 µM (active)
same,EC50,[2],1.16 µM (active)
same,EC50,[15],40.3 µM (active)
same,EC50,[16],47.2 µM (active)
same,EC50,[17],> 180 µM (inactive)
COCCNC(=O)C[C@H]1CC[C@@H]2[C@@H](COc3ccc(NC(=O)Nc4cccc(F)c4)cc3C(=O)N2C)O1,AC50,[18],5.19 µM (active)
